Molecules are shown by their SMILES.

For assay [1], the system named is Weizen. As to the kind of experiment: Post-emergence test (crop selectivity). The settings on record: post-emergence spray, 2000 l Wasser/ha, rated after three weeks. The assay is classed as in vivo. An excerpt:
(§1) Lösungsmittel: 5 Gewichtsteile Aceton Emulgator: 1 Gewichtsteil Alkylarylpolyglykolether
(§2) Zur Herstellung einer zweckmäßigen Wirkstoffzubereitung vermischt man 1 Gewichtsteil Wirkstoff mit der angegebenen Menge Lösungsmittel, gibt die angegebene Menge Emulgator zu und verdünnt das Konzentrat mit Wasser auf die gewünschte Konzentration. Mit der Wirkstoffzubereitung spritzt man Testpflanzen, welche eine Höhe von 5 - 15 cm haben so, daß die jeweils gewünschten Wirkstoffmengen pro Flächeneinheit ausgebracht werden. Die Konzentration der Spritzbrühe wird so gewählt, daß in 2000 l Wasser/ha die jeweils gewünschten Wirkstoffmengen ausgebracht werden. Nach drei Wochen wird der Schädigungsgrad der Pflanzen bonitiert in % Schädigung im Vergleich zur Entwicklung der unbehandelten Kontrolle.

Assay [2] has as its system Unkräuter, wie z. B. Datura, Galium, Polygonum, Portulak, Sinapis und Solanum. The assay can be described thus: Post-emergence test (herbicidal action on weeds). The assay is classed as in vivo. Conditions: post-emergence spray on test plants 5 - 15 cm high, 2000 l Wasser/ha, rated after three weeks as % Schädigung vs untreated control; result stated in comparison with Vergleichssubstanz (A).
Description: as §1, §2

As to `FC(F)(F)c1ccc(Oc2ccc(Cl)c(CBr)c2)c(Cl)c1` [Beispiel 1, 2-Chlor-5-(2-Chlor-4-trifluormethyl-phenoxy)-benzylbromid], the “Selektivität in Weizen” value in assay [1] was “guter Selektivität”. Further, the “Wirkung gegen Unkräuter” value in assay [2] is on record as “erheblich stärkere Wirkung”.
Taken in the same sequence, the figures for `CCOC(=O)C(C)(O)Cc1cc(Oc2c(Cl)cc(C(F)(F)F)cc2Cl)ccc1Cl` (stereo not shown) [Beispiel 6, 1-Hydroxy-1-methyl-2-(2-chlor-5-(2,6-dichlor-4-trifluormethyl-phenoxy)-phenyl)-propionsäure-ethylester] were “guter Selektivität” and “erheblich stärkere Wirkung”.

The values above are taken from patent EP0338306A2, “Halogen-substituted phenoxybenzyl compounds” (BAYER AG, priority 1988, dated 1989).
